Measured values reported in patent US8158577B2, “Modulation of cartilage homeostasis by active domains of cell binding extracellular matrix molecules” (priority 2004, dated 2012).
Entries after “also recorded” stand apart in the source; their conditions may differ.

What was measured:
K105 cells [1] = assay: Adhesion of K105 cells to chondroadherin in the presence of synthetic peptide (FIG. 3, 5A-5B, 13); type: cell-based, human; conditions: 1 hour at 37° C.; for adhesion of k105 cells to chondroadherin in the presence of peptide: peptide 200, 100, 50, 25, 12.5 μg/ml
Procedure: Human cells (K9) originating from a human chondrosarcoma were a kind gift from Drs. Sven Inerot and Anders Lindahl, The Salgrenska University Hospital Gothenburg, Sweden. The K9 cells were cultured in Dulbeccos Modified Eagle Medium: Nutrient Mixture F12 (DMEM/F12 1:1) with GLUTAMAX I, supplemented with 10% fetal calf serum, 25 μg/ml ascorbic acid, 50 IU of penicillin and 50 μg/ml streptomycin (Life Technologies, Inc.). A different human cells line (K105) originating from a human chondrosarcoma was a kind gift from Dr. Sven Inerot, The Salgrenska University Hospital, Gothenburg, Sweden. The K105 cells were cultured in a mix of 40% Dulbeccos Modified Eagle Medium, 40% Minimum Essential Media (MEM) alpha Medium, 10% Nutrient Mixture F1 supplemented with 100 nM hydrocortisone, 100 ng/ml insulin, 10% fetal calf serum, 25 μg/ml ascorbic acid, 50 IU of penicillin and 50 μg/ml streptomycin (Life Technologies, Inc.). To harvest cells, culture dishes were rinsed three times with Ca^2+/Mg^2+-free PBS and the cells were incubated with 0.5% trypsin and 1 mM EDTA for 5 min. Detached cells were suspended in PBS containing 1 mg/ml trypsin inhibitor (Sigma) and then washed in PBS. To remove membrane-bound collagens the cells were treated with collagenase 100 U/ml (CLSPA; Worthington Biochemical Corp., Lakewood, N.J.) in PBS, 30 min. 37° C. and then washed in PBS.
(§1) Tissue culture 48-wells dishes (Nunclon, Nunc, Denmark) were coated overnight with 5 μg/ml chondroadherin in 4M Guanidine-HCl, 50 mM sodium acetate, pH 5.8, or for native protein in PBS. Alternatively coating was with 5 μg/ml collagen type II in PBS followed by after-coating with 0.5% BSA in PBS for 3 hours. Collagen type II was isolated from bovine nasal cartilage by pepsin digestion (11). Bacterially expressed chondroadherin was isolated as described above. Recombinant chondroadherin expressed in EBNA cell was cloned and purified as described elsewhere (8).
(§2) To test cell binding, the chondrosarcoma cells or bovine chondrocytes were suspended in PBS containing 0.1% BSA, 25 U/ml collagenase and added to the wells (50,000/well), in the absence or presence of various peptide pools or the synthetic peptides (200, 100, 50, 25, 12.5 μg/ml). Non-adherent cells were removed after 1 hour and adhesion was determined by measuring lysosomal N-acetylglucosaminidase (12). Adhesion and spreading was visualized by light microscopy. In the time studies, k105 cells were allowed to adhere for 30 minutes, unbound cells were removed and medium without serum supplemented with or without peptides (250 μg/ml), β1 integrin antibody (clone P4C10, Gibco BRL), EDTA (5 mM) was added. Cell morphology was visualized by light microscopy after 1, 3 and 20 hours.
Study design: Tissue culture dishes (48-wells) were coated with 5 μg/ml chondroadherin expressed in E. coli and blocked for non-specific binding with BSA. […] were suspended in PBS containing 0.1% BSA, 25 U/ml collagenase and added to the wells (50,000/well) in the presence of synthetic peptide to be tested and allowed to adhere for 1 hour at 37° C. Nonadherent cells were removed by washing, and adhesion was determined by analyzing lysosomal hexosaminidase.
A 12-mer peptide (1947.01) plus an N-terminal cysteine (CQLRGLRRWLEAK) (SEQ ID NO. 3) representing the candidate sequence identified by mass spectrometry were synthesized and its ability to inhibit cell adhesion was determined. Tissue culture dishes were coated with 5 μg/ml chondroadherin expressed in E. coli and blocked for non-specific binding with BSA. The cells were suspended in PBS containing 0.1% BSA, 25 U/ml collagenase and added to the wells (50,000/well) in the presence of synthetic peptide (200, 100, 50, 25, 12.5 μg/ml) and allowed to adhere for 1 hour at 37° C. Nonadherent cells were removed by washing, and adhesion was determined by analyzing lysosomal hexosaminidase. […]

K105 cells [2] = assay: Effect on K105 cells already adherent to chondroadherin, light microscopy time study (FIG. 7, 9, 10); type: cell-based, human; conditions: for spreading, migration and aggregation of k105 cells adherent to chondroadherin: peptide 250 μg/ml added after 30 min adhesion, light microscopy after 1, 3 and 20 hours; for spreading and aggregation or detaching of k105 cells adherent to chondroadherin (FIG. 10): peptide, anti β1 antibody or 5 mM EDTA added after 30 min, light microscopy after 1 and 3 hours
Procedure: as §2
(§3) Tissue culture dishes were coated with 5 μg/ml chondroadherin expressed in E. coli and blocked for non-specific binding with BSA. The k105 cells were suspended in PBS containing 0.1% BSA, and added to the wells (50,000/well). Nonadherent cells were removed after 30 min by washing, plain medium without serum with or without peptides (250 μg/ml) was added and bound cells were visualized by light microscopy after 1, 3 and 20 hours.
as §3, with “The” for “The k105”, “hours. […] The activity for integrin binding is located in the C-terminal eight residues of the sequence involving the WLEAK (SEQ ID No. 1) sequence.” for “hours.”
as §3, with “washing, peptide, anti β1 antibody, 5 mM EDTA or” for “washing,”, “serum” for “serum with or without peptides (250 μg/ml)”, “1 and” for “1,”, “3” for “3 and 20”

K105 cells [3] = assay: Adhesion of K105 cells to the coated cell binding peptides (FIG. 8); type: cell-based, human
Procedure: Tissue culture dishes were coated with 33 μg/ml (20 µM) peptide solution. The cells (50,000/well) were suspended in PBS containing 0.1% BSA, 25 U/ml collagenase and added to the wells in the presence or absence of synthetic peptide (250 μg/ml) and allowed to adhere for 1 hour at 37° C. Nonadherent cells were removed by washing. Spreading was visualized by light microscopy.

bovine chondrocytes = assay: Adhesion of bovine chondrocytes to human chondroadherin with or without cell binding peptides (FIG. 6); type: cell-based; conditions: peptide 250 μg/ml, 1 hour at 37° C., 100,000 cells/well
Procedure: Bovine chondrocytes were isolated by collagenase (CLS1; Worthington Biochemical Corp., Lakewood, N.J.) digestion of articular cartilage from 4-6 month old calves as described (10). Briefly, cartilage slices were digested for 16 hours with collagenase in EBSS (Earle's balanced salt solution, GIBCO BRL Gaithersburg, Md.). The cells were filtered through a 100 μm nylon filter, washed three times in PBS containing 0.2% BSA (SERVA).
(§4) To test cell binding, the chondrosarcoma cells or bovine chondrocytes were suspended in PBS containing 0.1% BSA, 25 U/ml collagenase and added to the wells (50,000/well), in the absence or presence of various peptide pools or the synthetic peptides (200, 100, 50, 25, 12.5 μg/ml). Non-adherent cells were removed after 1 hour and adhesion was determined by measuring lysosomal N-acetylglucosaminidase (12). Adhesion and spreading was visualized by light microscopy. […]
Tissue culture dishes were coated with 5 μg/ml chondroadherin expressed in E. coli or collagen type II and blocked for non-specific binding with BSA. […] Adhesion was determined by analyzing lysosomal hexosaminidase. Adhesion is expressed as number of cells, 100,000 cells/well was seeded. […]

K105 cells [4] = assay: Adhesion of K105 cells to collagen type II in the presence of synthetic peptide (FIG. 5C-5D); type: cell-based, human; conditions: peptide 250 μg/ml, 1 hour at 37° C.
Procedure: as §1, §4
Tissue culture dishes were coated with 5 μg/ml chondroadherin expressed in E. coli or collagen type II and blocked for non-specific binding with BSA. […] Spreading was visualized by light microscopy, and adhesion was determined by analyzing lysosomal hexosaminidase. Adhesion is expressed as number of cells where the data represent the average of two wells. […]

## Ac-[CQLRGLRRWLEAKASRPDATC]-NH2 (Ac-CQLRGLRRWLEAKASRPDATC-NH2; also: cyclised (brackets), bond type not given here; listed as Homo sapiens) [SEQ ID No. 12]
K105 cells [1]
  inhibitory effect on K105 cell adhesion to chondroadherin (Example II, FIG. 13): inhibitory effect

## H-LRRWLEAK-OH (listed as Homo sapiens) [SEQ ID No. 2]
K105 cells [2]
  spreading, migration and aggregation of k105 cells adherent to chondroadherin: prevented spreading and induced cells to form aggregate

## CQLRGLRRWLEAK (N-terminal cysteine; listed as Homo sapiens) [12-mer peptide plus an N-terminal cysteine]
K105 cells [3]; dishes coated with 33 μg/ml peptide, 1 hour at 37° C.
  adhesion and shape of k105 cells plated on the peptide: adhere and remain round
K105 cells [3]; peptide in solution 250 μg/ml
  inhibition of k105 adhesion to the coated peptide by the same peptide in solution: inhibited
Bovine chondrocytes
  bovine chondrocyte adhesion to chondroadherin in the presence of peptide: decreased
K105 cells [1]; peptide 250 μg/ml
  k105 cell adhesion to chondroadherin in the presence of peptide: decreased
K105 cells [1]
  adhesion of k105 cells to chondroadherin in the presence of peptide: able to inhibit
K105 cells [1]; listed as 12-mer peptide
  adhesion of k105 cells to chondroadherin in the presence of peptide: decreased in a dose dependent manner
K105 cells [4]
  k105 cell adhesion to collagen type II in the presence of peptide: not significantly affected
K105 cells [2]
  spreading, migration and aggregation of k105 cells adherent to chondroadherin: stimulated the cells to form aggregate; also recorded: prevented spreading and induced cells to form aggregate
  spreading and aggregation or detaching of k105 cells adherent to chondroadherin (FIG. 10): prevented spreading and the cells formed aggregate

## O=C(O)CN(CCN(CC(=O)O)CC(=O)O)CC(=O)O [EDTA, reference compound]
K105 cells [2]
  spreading and aggregation or detaching of k105 cells adherent to chondroadherin (FIG. 10): cells detaching

## QLRGLRRW (listed as Homo sapiens)
K105 cells [2]
  spreading, migration and aggregation of k105 cells adherent to chondroadherin: no effect

## H-QLRGLRRWLEAK-OH (listed as Homo sapiens) [SEQ ID No. 3]
K105 cells [2]
  spreading, migration and aggregation of k105 cells adherent to chondroadherin: prevented spreading and induced cells to form aggregates
